Source: US20190030009A1, “COMPOUNDS AND COMPOSITIONS FOR THE TREATMENT OF CRYPTOSPORIDIOSIS” (Novartis AG, priority 2016, published 2019)
pEC50: −log10 of the molar value.

How the values were obtained:
Cryptosporidium parvum = assay: Cytopathic effect (CPE) based assay, C. parvum infected HCT-8 cells; settings: HCT-8 host cell viability (CellTiter-Glo), 48 hours treatment, read-out: Cp CPE EC50
Method: Human ileocecal colorectal adenocarcinoma cells (HCT-8 [HRT-18] ATCC, CCL-34) were maintained in T-175 flasks (Corning, 431080) in complete growth medium (RPMI-1640 medium (Gibco, 11875) supplemented with 10% heat-inactivated horse serum (Gibco, 26050), 1×MEM non-essential amino acids (Gibco, 11140), 10 mM HEPES (Gibco, 15630), 100 units/mL penicillin, and 100 units/mL streptomycin) at 37° C. and 5% CO2 in a humidified incubator. Cultures were passaged twice weekly using 10 mL of 1×Phosphate-Buffered Saline (PBS) without Ca^2+ and Mg^2+ (Gibco, 20012) for washing and 3-5 mL per T-175 flask of TrypLE Express Enzyme (Gibco, 12604) for dissociation of adherent cells.
Cryptosporidium parvum oocysts purchased from the Sterling Laboratory, University of Arizona (Iowa isolate) were purified from infected calf feces using discontinuous sucrose and cesium chloride centrifugation gradients and stored in PBS solution containing 0.01% Tween 20, 100 units/mL penicillin and 100 units/mL gentamicin.
Excystation and infection protocols were developed following established methods with some modifications (Gut & Nelson, 1999, Upton et aL, 1995, Bessoff et aL, 2013). Briefly, oocysts were primed in 1 mL of 10 mM hydrochloric acid in 1× Hank's Balanced Salt Solution (HBSS) (Gibco, 14025) for 10 minutes with agitation at 1000 rpm, 37° C. on an Eppendorf thermomixer, then washed twice with 1 mL of room temperature non-acidic 1× HBSS by centrifugation at 13,000 rpm for 3 minutes at 25° C. Primed oocysts were further excysted at a concentration of 1×10^6 oocysts/μL in parasite infection medium consisting of a pre-warmed and pre-gassed 1:1 formulation of Leibovitz's L-15 medium (Gibco, 11415) and UltraCULTURE medium (Lonza, 12-725F) supplemented with 2 mM sodium taurocholate (Sigma, 86339-1), 10% heat-inactivated horse serum, and 200 μM L-ascorbic acid (Sigma, 95210) at 25° C. for 10 minutes. HCT-8 monolayer cells were infected with excysted cryptosporidium at a specified multiplicity of infection (MOI). All dilutions for subsequent assays were performed in parasite infection medium without sodium taurocholate. Pre-excysted oocysts were enumerated microscopically using a C-Chip disposable hemocytometer (NanoEnTek, DHC-N01).
Compound powders were dissolved in neat DMSO (Fisher, D4121) to 10 mM and stored at 4° C. prior to dilution into source plates. Dilutions were carried out using a Microlab STAR liquid handler (Hamilton) to obtain compound source plates containing the ten-point or eight-point three fold dilutions starting from 10 mM in duplicates. Source plates were stored at 4° C. prior to spotting into assay plates. Before administration, all compound source plates were equilibrated to room temperature. A specified volume of compounds from source plate were spotted to assay plate using an Echo Acoustic liquid handler (LABCYTE, 550) so that the final DMSO concentration was less than 0.5%. Each assay plate a specified number of DMSO-treated negative control wells and a well-studied potent active compound at 100 nM as positive control. As a quality control, all positive and negative-control wells were used to calculate a Z′-value and signal to noise ratio (S:N) for each plate.
Cryptosporidium spp are obligate-intracellular parasites that infect intestinal epithelial cells and the host cell is killed upon parasite egress. […] The loss of epithelial cells is due to both rapid parasite invasion/multiplication/egress and also pro-inflammatory immune response (Adams et al., 1994, Griffiths et al., 1994). We have observed a consistent cytopathic effect (CPE) in HCT-8 cells with C. spp infection the loss of viability of the host cells using CellTiter-Glo reagent.
Confluent HCT-8 cells in T-175 flasks were directly infected with excysted oocysts at an MOI (host to parasite) of 1:2 for C. parvum and 1:4 for C. hominis. The number of host-cells is determined using a NucleoCounter (Chemometec, NC-100) in a control flask. […]

[1] = Cytotoxicity against HepG2; type: cell-based; settings: human, HepG2 cells (ATCC HB-8065), 5 days exposure
Method: Cytotoxicity against HepG2 (ATCC# HB-8065), a human liver cancer cell line, was determined as previously described earlier (Manjunatha et al., 2015). Briefly, cells were seeded at a density of 10^5 cells per well, incubated at 37° C. for 24 h and exposed to two-fold serially-diluted compounds for 5 days. Cell viability was monitored using the Cell Proliferation Kit II (Invitrogen). The cytotoxicity values of selected compounds are reported in the fifth column [HepG2 CC50 (μM)] of Table II.

SMILES: CN(C(=O)c1ccc(C(F)(F)F)cn1)c1ccn2ncc(-c3ccc(C(F)(F)F)cc3)c2c1 [Example 38]
- pEC50 (Cryptosporidium parvum): 5.33

SMILES: Fc1ccc(SCc2ccn3ncc(-c4ccc(C(F)(F)F)cc4)c3c2)cc1 [Example 21]
- pEC50 (Cryptosporidium parvum): < 4.70

SMILES: CC(c1ccn2ncc(-c3ccc(C(N)=O)cc3)c2c1)N1C(=O)COc2cc(F)ccc21 (centres unmarked) [Example 66]
- pEC50 (Cryptosporidium parvum): 6.88

SMILES: Cc1cc(-c2cnn3ccc(C(=O)N(C)c4ccc(C#N)cc4)cc23)cc(C)c1N [Example 80]
- pEC50 (Cryptosporidium parvum): 5.93

SMILES: CN(C(=O)c1ccn2ncc(-c3cnc4[nH]ccc4c3)c2c1)c1ccc(C#N)cc1 [Example 40]
- pEC50 (Cryptosporidium parvum): 7.13

SMILES: CS(=O)(=O)c1ccc(N(CC2CCOCC2)C(=O)c2ccn3ncc(-c4ccc(C(F)(F)F)cc4)c3c2)cc1 [Example 12]
- pEC50 (Cryptosporidium parvum): 4.90

SMILES: [O-][S+](Cc1ccn2ncc(-c3ccc(C(F)(F)F)cc3)c2c1)c1ccc(F)cc1 (centres unmarked) [Example 22]
- pEC50 (Cryptosporidium parvum): < 4.70

SMILES: CNC(=O)c1ccc(-c2cnn3ccc(C(=O)N(C)c4ccc(C#N)cc4)cc23)cc1 [Example 67]
- pEC50 (Cryptosporidium parvum): 7.59

SMILES: CCN(C(=O)c1ccn2ncc(-c3ccc(C(=O)NC)cc3)c2c1)c1ccc(C#N)c(OCCO)n1 [Example 162]
- CC50 at 5 days [1]: 24.4 µM

SMILES: CN(C(=O)c1ccn2ncc(-c3ccc(C(F)(F)F)cn3)c2c1)c1ccc(C#N)cn1 [Example 25]
- pEC50 (Cryptosporidium parvum): 5.64

SMILES: CN(C(=O)c1ccc(Cl)cc1)c1ccn2ncc(-c3ccc(C(F)(F)F)cc3)c2c1 [Example 55]
- pEC50 (Cryptosporidium parvum): 5.14

SMILES: CN(C(=O)c1ccn2ncc(-c3ccc(C(F)(F)F)cn3)c2c1)c1ccc(C#N)cc1 [Example 24]
- pEC50 (Cryptosporidium parvum): < 4.70

SMILES: CN(C(=O)c1ccn2ncc(-c3ccc(C(N)=O)cn3)c2c1)c1ccc(C#N)cn1 [Example 61]
- pEC50 (Cryptosporidium parvum): 4.75

SMILES: CC(=O)Nc1ccc(-c2cnn3ccc(C(=O)N(C)c4ccc(C#N)cn4)cc23)cc1 [Example 69]
- pEC50 (Cryptosporidium parvum): 6.70

SMILES: CN(C(=O)c1ccc(C2CC2)cc1)c1ccn2ncc(-c3ccc(C(F)(F)F)cc3)c2c1 [Example 50]
- pEC50 (Cryptosporidium parvum): < 4.70

SMILES: N#Cc1ccc(C(=O)N(CC2CCOCC2)c2ccn3ncc(-c4ccc(C(F)(F)F)cc4)c3c2)cc1 [Example 39]
- pEC50 (Cryptosporidium parvum): < 4.70

SMILES: CN(C(=O)c1ccn2ncc(-c3ccc(C(F)(F)F)cc3)c2c1)c1ccc(F)cc1 [Example 4]
- pEC50 (Cryptosporidium parvum): 5.17

SMILES: CN(C(=O)c1ccc(F)cn1)c1ccn2ncc(-c3ccc(C(F)(F)F)cc3)c2c1 [Example 51]
- pEC50 (Cryptosporidium parvum): < 4.70

SMILES: Fc1ccc(CNc2ccn3ncc(-c4ccc(C(F)(F)F)cc4)c3c2)cc1 [Example 35]
- pEC50 (Cryptosporidium parvum): < 4.70

SMILES: CN(C(=O)c1ccn2ncc(-c3cnc(N)c(C(F)(F)F)c3)c2c1)c1ccc(C#N)cn1 [Example 84]
- pEC50 (Cryptosporidium parvum): 5.37

SMILES: CC(=O)Nc1ccc(-c2cnn3ccc(C(C)N(C)c4ccc(C)cn4)cc23)cc1 (centres unmarked) [Example 68]
- pEC50 (Cryptosporidium parvum): 4.71

SMILES: CNC(=O)c1ccc(-c2cnn3ccc(C(=O)N4CCOc5cc(F)ccc54)cc23)cc1 [Example 73]
- pEC50 (Cryptosporidium parvum): 6.02

SMILES: CN(C(=O)c1ccc(C(F)(F)F)nc1)c1ccn2ncc(-c3ccc(C(F)(F)F)cc3)c2c1 [Example 37]
- pEC50 (Cryptosporidium parvum): 5.42

SMILES: CN(C(=O)c1ccn2ncc(-c3cnc(Cl)c(NS(C)(=O)=O)c3)c2c1)c1ccc(C#N)cn1 [Example 107]
- CC50 at 5 days [1]: 39.7 µM

SMILES: CN(Cc1ccc(F)cc1)c1ccn2ncc(-c3ccc(C(F)(F)F)cc3)c2c1 [Example 36]
- pEC50 (Cryptosporidium parvum): < 4.70

SMILES: Cc1ccc(-c2cnn3ccc(C(=O)N(C)c4ccc(C#N)cn4)cc23)nc1 [Example 59]
- pEC50 (Cryptosporidium parvum): < 4.70

SMILES: CN(C(=O)c1ccc(C2CC2)nc1)c1ccn2ncc(-c3ccc(C(F)(F)F)cc3)c2c1 [Example 49]
- pEC50 (Cryptosporidium parvum): 4.72

SMILES: Cc1cc(-c2cnn3ccc(C(=O)N(C)c4ccc(C#N)cc4)cc23)cnc1N [Example 81]
- pEC50 (Cryptosporidium parvum): 6.17

SMILES: CN(C(=O)c1ccn2ncc(-c3ccc(C(N)=O)cc3)c2c1)c1ccc(Cl)cc1C=O [Example 89]
- pEC50 (Cryptosporidium parvum): 7.07

SMILES: CNC(=O)c1ccc(-c2cnn3ccc(S(=O)(=O)N(c4ccc(C#N)cn4)C4CC4)cc23)cc1 [Example 164]
- CC50 at 5 days [1]: 6.98 µM

SMILES: CN(C(=O)c1ccc(F)cc1)c1ccn2ncc(-c3ccc(C(F)(F)F)cc3)c2c1 [Example 29]
- pEC50 (Cryptosporidium parvum): < 4.70

SMILES: CN(C(=O)c1ccn2ncc(-c3ccc(N)cc3)c2c1)c1ccc(C#N)cc1 [Example 42]
- pEC50 (Cryptosporidium parvum): 6.85

SMILES: CN(C(=O)c1ccn2ncc(-c3cnc(N)c(Cl)c3)c2c1)c1ccc(C#N)cn1 [Example 86]
- pEC50 (Cryptosporidium parvum): 6.30

SMILES: Cc1ccc(N(C)C(=O)c2ccn3ncc(-c4ccc(C(F)(F)F)cc4)c3c2)nc1 [Example 5]
- pEC50 (Cryptosporidium parvum): < 4.70

SMILES: CN(C(=O)c1ccc(F)cc1)c1ccn2ncc(-c3ccc(C(N)=O)cc3)c2c1 [Example 56]
- pEC50 (Cryptosporidium parvum): 6.16

SMILES: CNc1nnc(-c2ccc(-c3cnn4ccc(N(C)C(=O)c5ccc(F)cc5)cc34)cc2)s1 [Example 57]
- pEC50 (Cryptosporidium parvum): 5.25

SMILES: Fc1ccc(CCc2ccn3ncc(-c4ccc(C(F)(F)F)cc4)c3c2)cc1 [Example 16]
- pEC50 (Cryptosporidium parvum): < 4.70

SMILES: C[C@H](N)C(=O)Nc1ccc(-c2cnn3ccc(C(=O)N(C)c4ccc(C#N)cc4)cc23)cc1 [Example 26]
- pEC50 (Cryptosporidium parvum): 6.85

SMILES: CNC(=O)c1ccc(-c2cnn3ccc(C(=O)N(c4ccc(C#N)cn4)C4COC4)cc23)cc1 [Example 76]
- pEC50 (Cryptosporidium parvum): < 4.70

SMILES: Cc1ccc(OCc2ccn3ncc(-c4ccc(C(F)(F)F)cc4)c3c2)nc1 [Example 15]
- pEC50 (Cryptosporidium parvum): < 4.70

SMILES: CN(C(=O)c1ccn2ncc(-c3ccc(C(F)(F)F)cc3)c2c1)c1ccc(C(F)(F)F)cn1 [Example 33]
- pEC50 (Cryptosporidium parvum): 5.82

SMILES: CN(C(=O)c1ccn2ncc(-c3cnc(N)c(F)c3)c2c1)c1ccc(C#N)cc1 [Example 79]
- pEC50 (Cryptosporidium parvum): 6.69

SMILES: CN(C(=O)c1ccn2ncc(-c3ccc(C(F)(F)F)cc3)c2c1)c1ccc(S(C)(=O)=O)cn1 [Example 34]
- pEC50 (Cryptosporidium parvum): 5.31

SMILES: CN(C(=O)c1ccn2ncc(-c3ccc(C(F)(F)F)cc3)c2c1)C1=CCC(C#N)C=C1 (centres unmarked) [Example 1]
- pEC50 (Cryptosporidium parvum): 6.18

SMILES: CN(c1ccn2ncc(-c3ccc(C(F)(F)F)cc3)c2c1)S(=O)(=O)c1ccc(F)cc1 [Example 31]
- pEC50 (Cryptosporidium parvum): < 4.70

SMILES: COc1cc(-c2cnn3ccc(C(=O)N(C)c4ccc(C#N)cn4)cc23)cnc1N [Example 88]
- pEC50 (Cryptosporidium parvum): 5.65

SMILES: COc1ccc(-c2cnn3ccc(C(=O)N(C)c4ccc(C#N)cn4)cc23)nc1 [Example 60]
- pEC50 (Cryptosporidium parvum): 5.63

SMILES: CN(C(=O)c1ccc(C(C)(F)F)nc1)c1ccn2ncc(-c3ccc(C(F)(F)F)cc3)c2c1 [Example 48]
- pEC50 (Cryptosporidium parvum): 5.20

SMILES: CN(C(=O)c1ccn2ncc(-c3ccc(C(N)=O)cc3)c2c1)c1ccc(C(F)(F)F)cn1 [Example 62]
- pEC50 (Cryptosporidium parvum): 7.55

SMILES: CN(Cc1ccn2ncc(-c3ccc(C(F)(F)F)cc3)c2c1)c1ccc(F)cc1 [Example 2]
- pEC50 (Cryptosporidium parvum): < 4.70

SMILES: Cc1ccc(N(C)Cc2ccn3ncc(-c4ccc(C(F)(F)F)cc4)c3c2)nc1 [Example 7]
- pEC50 (Cryptosporidium parvum): < 4.70

SMILES: Cc1ccc(N(C)C(=O)c2ccn3ncc(-c4ccc(C(N)=O)cc4)c3c2)nc1 [Example 63]
- pEC50 (Cryptosporidium parvum): 6.71

SMILES: CN(C(=O)Nc1ccc(F)cc1)c1ccn2ncc(-c3ccc(C(F)(F)F)cc3)c2c1 [Example 47]
- pEC50 (Cryptosporidium parvum): < 4.70

SMILES: CN(C(=O)c1ccn2ncc(-c3ccc(C(F)(F)F)cc3)c2c1)c1ccc(Cl)cc1 [Example 3]
- pEC50 (Cryptosporidium parvum): 4.78

SMILES: CNC(=O)c1ccc(-c2cnn3ccc(C(=O)N4c5ccc(F)cc5OCC4C)cc23)cc1 (centres unmarked) [Example 74]
- pEC50 (Cryptosporidium parvum): 5.91

SMILES: CN(c1ccn2ncc(-c3ccc(C(F)(F)F)cc3)c2c1)S(=O)(=O)c1ccc(C#N)cc1 [Example 30]
- pEC50 (Cryptosporidium parvum): < 4.70
